What was measured:
[1] = Fluorescence/absorption spectrum of probe with TMPyP4 under light irradiation (photosensitised singlet oxygen); assay type: physicochemical; details: for increase of fluorescence intensity: 50 μM Si-DMA, 5 μM TMPyP4, 50-minute irradiation 510-550 nm, 0.07 W/cm2
Procedure: Further, in the in vitro measurement, unless otherwise specified, all bulk spectrum measurements were performed in a phosphate buffered saline (PBS) having a pH of 7.5 without Ca and Mg or spectral grade methanol. The absorption spectrum and fluorescence spectrum in the ground state were measured using the Shimadzu UV-3100 and Horiba FluoroMax-4, respectively. The bulk irradiation was performed using a xenon light source (LAX-C100, Asahi Spectra Co., Ltd.) and a wavelength filter (BA510-550, Olympus Corporation).
The concentration of Si-DMA was 50 μM, and the concentration of TMPyP4 was 5 μM. The light irradiation was performed using a 510- to 550-nm wavelength ray at an intensity of 0.07 W/cm^2 under magnetic stirring so as to generate singlet oxygen.
In FIGS. 1a) and 1c), the black arrows denote changes in absorption by peroxidation (solid line) of the anthracene structure and disaggregation of hydrogen aggregate (broken line).
Subsequently, Si-DMA was reacted with singlet oxygen, thereby forming Si-DMEP; as a result, photoinduced electron transfer was inhibited, thereby increasing the fluorescence intensity (Φfl=0.17). In methanol, the fluorescence intensity increased about 18 times (in methanol), and about 22 times (in PBS) (FIGS. 1b) and 1d); red), and a loss of the anthracene structure was observed (FIG. 1a); black arrow).

[2] = Fluorescence change after singlet oxygen generated chemically by NaOCl and H2O2; assay type: physicochemical; details: for fluorescence depending on concentration of singlet oxygen: NaClO and H2O2, DMSO:methanol:tris buffer 1:49:50, 5 μM
Procedure: Further, singlet oxygen was introduced into Si-DMA using a chemical catalyst. More specifically, singlet oxygen was introduced using 10 mM NaOCl and 10 mM H2O2. In this case as well, a spectral change similar to that in FIG. 1 was observed. […] The black arrow in FIG. 4a) and the red arrow in FIG. 4b) respectively show a loss of the anthracene structure, and an increase in the fluorescence of Si-DMA. The fluorescence increased about 10 times by 10-minute incubation using NaOCl and H2O2. By introducing a greater amount of singlet oxygen, more Si-DMA is expected to change into Si-DMEP.
The measurement was performed by generating singlet oxygen using NaClO and H2O2 in a solution containing DMSO:methanol:tris buffer agent=1:49:50 (Si-DMA concentration=5 μM).

HeLa cells = experiment: Selectivity of photosensitizer: intracellular singlet oxygen detection with Si-DMA; assay type: cell-based; details: 25 nM Si-DMA, 640 nm, 0.6 W/cm2
Procedure: Subsequently, a quick protocol provided by Molecular Probe® for introducing CellROX Green was followed. Using diluted Si-DMA and Si-Me, incubation was performed for 30 minutes to two hours by an experiment. To introduce a photosensitizer, 150 μg/mL of 5-aminolevulinic acid (5-ALA) or 10 LM TMPyP4 were incubated for four hours and 24 hours, respectively. As a result, as previously reported, the conversion of 5-ALA into protoporphyrin IX (PpIX) in the mitochondria was confirmed by the fluorescence luminescence of PpIX.
A KillerRed vector was expressed in accordance with a general Lipofectamine® 2000 (Invitrogen) protocol. More specifically, 2×10^5 Hela cells were subcultured in a 35-mm glass bottom dish. The cells reached about 50% confluent in the next day.
Subsequently, a mixed solution of Lipofectamine reagent and DNA vector was obtained by mixing 6 μL Lipofectamine® 2000 with 7 μL pKillerRed-dMitovector ([…], Evrogen, catalog No. FP964) in an Opti-MEM solution (Gibco). Thereafter, the resulting solution was incubated for 20 minutes at room temperature. 300 μL of the mixed solution was added to a growth medium, and incubated for 24 hours. The expression of KillerRed was confirmed by monitoring KillerRed fluorescence using a wide-view microscope. […]
Further, on the night before the treatment, 0.2×10^6 HeLa cells were seeded on a 35-mm dish, and pKillerRed-dMito vector (Evrogen) was introduced using Lipofectaimine®2000 (Invitrogen®), followed by 24-hour incubation as described above, thereby preparing HeLa cells containing […]. […] Light irradiation was performed for 30 seconds simultaneously at 0.5 W/cm^2 and 0.6 W/cm^2 using a 640-/532-nm laser (Coherent) and a wide-view fluorescence microscope system mounted in an IX81 inverted microscope (Olympus Corporation). […]
Further, in this Experiment Example, 60-second light irradiation was performed using three kinds of photosensitizers, and an average number of pseudo colors appeared in the photo and an increase thereof were measured. […]

Cc1c2ccccc2c(C)c2cc(C3=C4C=CC(=[N+](C)C)C=C4[Si](C)(C)c4cc(N(C)C)ccc43)ccc12 [Si-DMA]
stability (color fading) under light irradiation ([1]; after 900 seconds): color fading was not observed | increase of fluorescence intensity ([1]; in PBS): about 22 times | increase of fluorescence intensity ([1]; in methanol): about 18 times | change of fluorescence on light irradiation ([1]; in the absence of TMPyP4): did not increase | increase of fluorescence ([2]; 10 mM NaOCl and 10 mM H2O2, 10-minute incubation): about 10 times | fluorescence depending on concentration of singlet oxygen ([2]; aggregate): increase in fluorescence in proportion to the concentration of singlet oxygen | fluorescence depending on concentration of singlet oxygen ([2]; monomer): increase in fluorescence in proportion to the concentration of singlet oxygen | time to increase in fluorescence in the vicinity of the perinuclear region (HeLa cells; HeLa cells with PpIX (150 μg/mL 5-aminolevulinic acid, 4 h)): ≤ 10 s | color rendering (HeLa cells; HeLa cells with PpIX as photosensitizer): clear color rendering was accomplished

Reference: US10564164B2, “Fluorescent probe, singlet oxygen detection agent, and singlet oxygen detection method” (Osaka University, priority 2014, dated 2020)
